One test deals with T1, hPPARγ (Homo sapiens, UniProt P37231).
T1 construct: For assessing full-length PPAR receptors, CV-1 cells were transiently co-transfected; expressed in transfected cells; host or cells: CV-1 cells
T1 sequence (P37231 1-505): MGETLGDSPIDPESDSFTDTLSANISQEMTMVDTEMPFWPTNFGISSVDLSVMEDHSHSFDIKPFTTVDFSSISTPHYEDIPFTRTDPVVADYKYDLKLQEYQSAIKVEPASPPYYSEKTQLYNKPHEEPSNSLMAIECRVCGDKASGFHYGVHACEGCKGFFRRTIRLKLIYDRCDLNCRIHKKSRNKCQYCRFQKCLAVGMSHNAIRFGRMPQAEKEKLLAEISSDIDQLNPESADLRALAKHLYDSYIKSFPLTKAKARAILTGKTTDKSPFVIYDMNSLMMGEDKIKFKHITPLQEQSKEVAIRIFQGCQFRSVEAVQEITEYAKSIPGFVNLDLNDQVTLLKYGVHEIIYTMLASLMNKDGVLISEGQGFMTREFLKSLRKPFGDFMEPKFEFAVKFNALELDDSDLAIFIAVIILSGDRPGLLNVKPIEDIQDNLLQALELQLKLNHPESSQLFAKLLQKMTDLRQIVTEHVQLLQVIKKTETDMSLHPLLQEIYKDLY
The test is described as follows: CV-1 PPRE×3 TK-Luciferase transient transfection assay. The class given is cell-based. The following applies: for PPARγ-dependent reporter gene expression by LNO2 decay products, oxidized linoleic acid derivatives and •NO donors: PPARγ-transfected CV-1 cells, FIG. 8C; for activation of PPARγ reporter gene expression compared with vehicle control: 1 and 3 μM, CV-1 cells, PPRE reporter. The text has this:
Cell Transient Transfection Assay. […] Then, cells were transiently co-transfected with a plasmid containing the luciferase gene under regulation by four Gal4 DNA binding elements (UASG×4 TK-Luciferase, a gift from Dr. Ronald M. Evans), in concert with plasmids containing the ligand binding domain for the different nuclear receptors fused to the Gal4 DNA binding domain. For assessing full-length PPAR receptors, CV-1 cells were transiently co-transfected with a plasmid containing the luciferase gene under the control of three tandem PPAR response elements (PPRE) (PPRE×3 TK-Luciferase) and hPPARγ, hPPARα or hPPARδ expression plasmids, respectively. In all cases, fluorescence protein (GFP) expression plasmid was co-transfected as the control for the transfection efficiency. Twenty-four hours after the transfection, cells were cultured for another 24 hours in Optium-MEM (Invitrogen, Carlsbad, Calif.). Then, cells were treated with different compounds as indicated in figures for 24 hours in Optium-MEM. Reporter luciferase assay kits from Promega (Madison, Wis.) were used to measure the luciferase activity according to the manufacturer's instructions with a luminometer (Victor II, Perkin-Elmer). Luciferase activity was normalized by GFP units. Each condition was performed at least in triplicates in each experiment.
PPAR transient transfection assay. […] Twelve hours before transfection, the media was removed and antibiotic-free media was applied. Cells were transiently co-transfected with a plasmid containing the luciferase gene under the control of three tandem PPAR response elements (PPRE) (PPRE×3 TK-Luciferase) and PPARγ, PPARα or PPARδ expression plasmids, respectively. In all cases, fluorescence protein (GFP) expression plasmid was co-transfected as the control for transfection efficiency. Twenty-four hours after transfection, cells the returned to OptiMEM (Invitrogen, Carlsbad, Calif.) for 24 hr and then treated as indicated for another 24 hr. Reporter luciferase assay kits from Promega (Madison, Wis.) were used to measure the luciferase activity according to the manufacturer's instructions with a luminometer (Victor II, Perkin-Elmer). Luciferase activity was normalized by GFP units. Each condition was performed in triplicate in each experiment (n>3).

Test [1] deals with human vascular endothelial cells and macrophages. Nature of the test: Whole Human Genome Oligo Array gene expression. The class given is cell-based. The conditions noted are these: 24 hours; LNO2O 2.5 mM, linoleic acid 2.5 μM. The method, then:
The nitroalkenes of the present invention also display regulatory actions towards the expression of genes related to inflammatory responses, cell growth, cell differentiation, cell signaling, cell death (apoptosis) and metabolism. For example, nitrolinoleate regulates gene expression in human vascular endothelial cells and macrophages. Cells were stimulated with vehicle and linoleic acid (2.5 μM, the latter two treatments as controls) and LNO2O ([…]) for 24 hours. The total RNA was purified with a Qiagen Kit and analyzed with a Whole Human Genome Oligo Array (G4112A, 41K Genes, Agilent). […] In contrast, the native (precursor) fatty acid, linoleic acid, only regulates 14 genes, with an up-regulation of 5 genes and the down-regulation of 9 genes.

Test [2] has as its target T2, Human PPARγ1 (GST-PPARγ) (Homo sapiens, UniProt P37231).
T2 sequence (P37231 1-477 isoform P37231-2): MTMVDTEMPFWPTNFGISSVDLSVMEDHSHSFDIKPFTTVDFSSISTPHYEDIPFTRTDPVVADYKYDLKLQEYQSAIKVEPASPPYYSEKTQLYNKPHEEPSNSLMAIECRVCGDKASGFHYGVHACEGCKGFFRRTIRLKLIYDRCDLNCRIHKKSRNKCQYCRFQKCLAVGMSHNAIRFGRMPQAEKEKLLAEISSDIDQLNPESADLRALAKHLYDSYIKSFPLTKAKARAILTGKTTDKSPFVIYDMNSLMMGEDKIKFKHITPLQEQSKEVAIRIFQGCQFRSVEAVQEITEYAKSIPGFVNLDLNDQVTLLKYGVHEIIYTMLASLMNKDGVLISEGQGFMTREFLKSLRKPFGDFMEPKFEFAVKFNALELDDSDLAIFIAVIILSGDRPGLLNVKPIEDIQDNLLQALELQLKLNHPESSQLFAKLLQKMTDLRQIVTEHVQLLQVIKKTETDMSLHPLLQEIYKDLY
The following applies: read-out: previously reported Ki for PPARγ; cited from earlier work.

Test [3] has as its target T2, Human PPARγ1 (GST-PPARγ). Nature of the test: PPARγ competition binding assay ([^3H]Rosiglitazone displacement). The following applies: calculated / estimated. The method, then: PPARγ Competition Binding Assay. Human PPARγ1 cDNA was inserted into pGEX from Amersham Biosciences Corp (Piscataway, N.J.) containing the gene encoding glutathione S-transferase (GST). GST-PPARγ protein induction and receptor binding was assessed as previously described (17).

Another test relates to NF-kB pathways. The test is described as follows: NF-kB pathway activity (NFkB-response element luciferase reporter, IkB degradation). The class given is cell-based. The following applies: reporter in response to TNFa; IkB degradation in response to E. coli LPS. In general terms: In a reporter assay the amount or activity of a reporter protein is the signal.

The structures appear in SMILES notation. Read-outs that look alike come from different tables or passages of the source. Bounds are passed on as bounds.

`CCCCC/C=C\C=C\C(=O)CCCCCCCC(=O)O` [9-oxoODE]: on hPPARγ, the “PPARγ-dependent reporter gene expression by LNO2 decay products, oxidized linoleic acid derivatives and •NO donors” value is recorded as “modest PPARγ activation”.

On to `CCCCCC(=O)/C=C/C=C\CCCCCCCC(=O)O` [13-oxoODE], for which, at hPPARγ, the “PPARγ-dependent reporter gene expression by LNO2 decay products, oxidized linoleic acid derivatives and •NO donors” value is on record as “no effect”.

On to `CCCCCCC=CC=CCCCCCCCC(=O)O` [CLA1, Δ^9,11-conjugated linoleic acid], for which the “activation of PPARγ reporter gene expression compared with vehicle control” value (shortened to “activation … compared with vehicle control”) at hPPARγ is reported as “no significant activation”.

Consider `CCCCCC=CC=CCCCCCCCCC(=O)O` [CLA2, Δ^10,12-conjugated linoleic acid], for which the “activation … compared with vehicle control” value on hPPARγ is listed as “no significant activation”.

Regarding `CCCCCCCC/C=C\CCCCCCCCOC[C@@H](O)COP(=O)(O)O` [LPA-18:1, 1-O-9-(Z)-octadecenyl-2-hydroxy-sn-glycero-3-phosphate], the “activation … compared with vehicle control” value at hPPARγ is “no significant activation”.

Regarding `CCCCCCCCCCCCCCCC(=O)OC[C@H](COP(=O)([O-])OCC[N+](C)(C)C)OC(=O)CCCCCCCC(=O)O` [azPC ester, 1-Palmitoy-2-Azelaoyl-sn-Glycero-3-Phosphocholine], at hPPARγ, the “activation … compared with vehicle control” value is on record as “no significant activation”.

With `CCCCCCCCCCCCCCCCOC[C@H](COP(=O)([O-])OCC[N+](C)(C)C)OC(=O)CCCCCCCC(=O)O` [azPC, 1-O-hexadecyl-2-azelaoyl-sn-glycero-3-phosphocholine], the “activation … compared with vehicle control” value on hPPARγ was “no significant activation”.

As usually defined, the Ki is a measure of affinity in units of concentration, obtained from inhibition or displacement. On to `CCCCC/C=C\C/C=C\CCCCCCCC(=O)O` [linoleic acid, reference compound], for which, in test [1], the “number of genes down-regulated” value came to 9 genes, the “number of genes regulated” value is 14 genes and the “number of genes up-regulated” value was found to be 5 genes. For the same molecule, the Ki on Human PPARγ1 (GST-PPARγ) [2] is 1700 to 17000 nM. Moreover, the inhibition constant Ki at Human PPARγ1 (GST-PPARγ) [3] was greater than 1000 nM. For the same molecule, the “expression of adipocyte markers (PPARγ2 and aP2)” value in the test on 3T3-L1 preadipocytes (immunoblot of cell lysate) is “not detected”. Moreover, the “activation … compared with vehicle control” value on hPPARγ is given as “no significant activation”. Besides, the “activity of NF-kB pathways” value with NF-kB pathways is given as “not”.

For the molecule `CCCCCCCCC=CCCCCCCCC(=O)O` [oleic acid, 9-Octadecenoic acid, reference compound], the “adipogenesis / adipocyte differentiation (morphology, oil red O)” value with 3T3-L1 preadipocytes (two weeks, Rosiglitazone 3 μM, linoleic acid 10 μM, oleic acid 3 μM) is “did not induce adipogenesis”.

The record behind these values is patent US9867795B2, “Nitrated lipids and methods of making and using thereof” (The UAB Research Foundation, priority 2004, dated 2018).
